Laboratory results taken from patent US20140179726A1, “GUT MICROFLORA AS BIOMARKERS FOR THE PROGNOSIS OF CIRRHOSIS AND BRAIN DYSFUNCTION” (priority 2011, published 2014).
Several values for one entry are separate records, joined by “and”; a condition that tells them apart may be missing. Equal entries are not always repeated.

Experiments:
[1] = tested on: cirrhotic patients with HE; test: Comparison within the HE group: cognitive battery (PHES, block design, ICT) (Example 1); format: in vivo, human; settings: HE patients on therapy, mean ± SD
Method: All subjects underwent a mini-mental status exam and only those scoring above 25 were included in the full study (11). Participants then underwent a 24-hour dietary recall. Subsequently a recommended cognitive battery consisting of the following tests was administered to the cirrhotic patients; (a) Psychometric hepatic encephalopathy score (PHES), (b) block design test (BDT: subjects are required to replicate standardized designs with given blocks in a timed manner. The score is based on the designs correctly copied) and (c) Inhibitory control test. [This is a 15 minute computerized test. Subjects are instructed to respond to alternating presentations of X and Y on the screen (targets) while inhibiting response when X and Y are not alternating (lures)] (3, 41). The PHES consists of 5 tests: number connection test-A/B (NCT-A/B: subjects are asked to “join the dots” between numbers or numbers and alphabets in a timed fashion and the number of seconds required is the outcome), digit symbol (DST: subjects are required to copy corresponding figures from a given list within 2 minutes and the number correctly copied is the result), line drawing [LDTt (time) and LDTe (errors): subjects are required to trace a line between two parallel lines and balance between speed and accuracy. Time required and the number of times the subject's line strays beyond the marked lines (errors) are recorded] and serial dotting (SDT, subjects are asked to dot the center of a group of blank circles and the time required is the outcome)]. The PHES is a validated battery for cognitive dysfunction in cirrhosis and tests for psychomotor speed, visuo-motor coordination, attention and set-shifting(32). The BDT tests for visuo-motor coordination. The ICT is a validated computerized test of attention, psychomotor speed, response inhibition and working memory. A high score on BDT, DST and ICT targets and a low score on the rest of the tests indicates good cognitive performance. Cirrhotic patients also underwent serum collection for inflammatory cytokines testing for innate immunity [IL-1b, IL-6, TNF-α (tumor necrosis factor-alpha)], Th1 response ([IFN-γ (interferon-gamma) and IL-2], Th2 response (IL-4, IL-10, IL-13], Th17 response (IL-17 and IL-23), and endotoxin. These were analyzed in duplicate by multiplex bead-based sandwich ELISA and LAL assay for endotoxin using published techniques by AssayGate Inc, Ijamsville, Md. (4, 17, 45).
(§1) The cirrhosis group was divided into those with and without HE and were compared. Data from the significant variables between HE and non-HE groups were combined in a MANOVA model. Within HE patients, comparison was made between those on lactulose alone to those with lactulose and rifaximin. Microbiome abundance comparisons between groups were made at a family level using non-parametric tests. A comparison was performed between patients on and withdrawn off of lactulose therapy using the Wilcoxon matched-pair signed rank tests. All values are presented as mean±standard deviation unless mentioned otherwise.

[2] = tested on: stool microflora; test: Prospective study after lactulose withdrawal: stool microbiome on lactulose and 14 days off; format: in vivo, human
Method: Prospective study: A selected group of seven cirrhotic patients in the HE group currently only on lactulose (who were also included in the cross-sectional study) were systematically withdrawn from therapy. Their diet was controlled over the study period. Their stool microflora was analyzed while on lactulose and then 14 days off of lactulose therapy. Day 14 was chosen since prior culture-based studies have shown a change in fecal flora after lactulose initiation within that time frame (31).
Interrogation of the Microbiome: Stool was collected and DNA extracted for microbiome analysis within 24 hours of collection from patients and controls using published techniques (29). We first routinely use Length Heterogeneity PCR (LH-PCR) fingerprinting of the 16S rRNA to rapidly survey our samples and standardize the community amplification. We then interrogated the microbial taxa associated with the gut fecal microbiome using Multitag Pyrosequencing (MTPS). This technique allows the rapid sequencing of multiple samples at one time yielding thousands of sequence reads per sample (12).
MTPS: We employed the MTPS process to characterize the microbiome from the fecal samples. Specifically, we have generated a set of 96 emulsion PCR fusion primers that contain the 454 emulsion PCR linkers on the 27F and 355R primers and a different 8 base “barcode” between the A adapter and 27F primer. Thus, each fecal sample was amplified with unique bar-coded forward 16S rRNA primers and then up to 96 samples were pooled and subjected to emulsion PCR and pyrosequenced using a GS-FLX pyrosequencer (Roche). Data from each pooled sample were “deconvoluted” by sorting the sequences into bins based on the barcodes using custom PERL scripts. Thus, we were able to normalize each sample by the total number of reads from each barcode. We have noted that ligating tagged primers to PCR amplicons distorts the abundances of the communities and thus it is critical to incorporate the tags during the original amplification step (12). Several groups have employed various barcoding strategies to analyze multiple samples and this strategy is now well accepted (38).
RDP10 Analysis: We identified the taxa present in each sample using the Bayesian analysis tool in Version 10 of the Ribosomal Database Project (RDP10). The abundances of the bacterial identifications were then normalized using a custom PERL script and taxa present at >1% of the community were tabulated. We chose this cutoff because of our a priori assumption that taxa present in <1% of the community vary between individuals and have minimal contribution to the functionality of that community and 2,000 reads per sample will only reliably identify community components that are greater than 1% in abundance (13).
as §1

[3] = stool, baseline on lactulose, seven patients

Compound `OC[C@H]1O[C@@H](O[C@@H]2[C@@H](CO)OC(O)(CO)[C@H]2O)[C@H](O)[C@@H](O)[C@H]1O` (mixture of isomers) [lactulose] has an ICT targets ([1]; high = good cognition) of 90.6 ± 8.64%, a block design ([1]; high = good cognition) of 24.9 ± 24.8 score and a digit symbol ([1]; high = good cognition) of 36.5 ± 14.0 score. For the same compound, the ICT lures ([1]; high = poor cognition) was 17.4 ± 10.8 number, the Line drawing errors ([1]; high = poor cognition) was 28.0 ± 18.6 score and the Line drawing time ([1]; high = poor cognition) was 106.9 ± 54.5 s. The “number connection-A” value ([1]; high = poor cognition) was 55.2 ± 34.1 s, the “number connection-B” value ([1]; high = poor cognition) was 189 ± 127 s and the serial dotting ([1]; high = poor cognition) was 88.7 ± 29.2 s. For the same compound, the “clinically recurrent HE at day 14” value ([2]; after systematic withdrawal of lactulose, seven patients) was “None of the patients had clinically recurrent HE”, the “abundance of Faecalibacterium spp. post-withdrawal” value ([2]; stool, 14 days off lactulose, p=0.026 vs on lactulose) was 1% and the “abundance of Veillonella spp. post-withdrawal” value ([2]; stool, 14 days off lactulose, trend, p=0.07) was 0%. For the same compound, the “abundance of Alcaligenaceae” value [2, 3] was 2.6%, the “abundance of Alistipes” value [2, 3] was 3% and the “abundance of Bacteroides” value [2, 3] was 35%. For the same compound, the “abundance of Clostridium spp.” value [2, 3] was less than 1%, the “abundance of Dialister” value [2, 3] was 2% and the “abundance of Faecalibacterium” value [2, 3] was 7% and 6%. The “abundance of Hafnia” value [2, 3] was 2%, the “abundance of Hallella” value [2, 3] was 4% and the “abundance of Lachnospira” value [2, 3] was 5%. The “abundance of Lactobacillus spp.” value [2, 3] was less than 1%, the “abundance of Parabacteroides spp.” value [2, 3] was 2% and the “abundance of Porphyromonadaceae” value [2, 3] was 1.7%. For the same compound, the “abundance of Prevotella” value [2, 3] was 13%, the “abundance of Roseburia” value [2, 3] was 3% and the “abundance of Ruminococcus spp.” value [2, 3] was less than 1%. The “abundance of Shigella spp.” value [2, 3] was less than 1%, the “abundance of Streptococcus spp.” value [2, 3] was less than 1% and the “abundance of Succinispira spp.” value [2, 3] was 2%. The “abundance of Sutterella spp.” value [2, 3] was 1%, the “abundance of Veillonella” value [2, 3] was 2% and the “other relative abundance change after lactulose withdrawal” value ([2]; stool, day 14, including Porphyromonadaceae and Alcaligenaceae) was “No other significant relative abundance change”.
